The structures appear in SMILES notation. “And” between values parts separate entries of the source, which are not always exact repeats. Identical values can stand only once.

For experiment [1], the system named is ECHCG. The experiment in a line: Example I: postemergence foliar-applied weed control, greenhouse. The experiment is classed as in vivo, Echinochloa crus-galli (L.) Beauv. (barnyardgrass). The conditions noted are these: for Visual Weed Control (%) - 22 DAA ECHCG Obs / Visual Weed Control (%) - 20 DAA ECHCG Obs: foliar. The procedure, abridged:
(§1)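 Plants grown in loam/sandy loam–calcareous grit soil (80:20) in greenhouse, 14 hr photoperiod, about 29° C. day/26° C. night, treated postemergence at first to fourth true leaf stage. Foliar spray at 187 L/ha with 1.25% (v/v) crop oil concentrate; Compound A dosed on acid equivalent basis, partners on active ingredient basis.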

Experiment [2] has as its system CYPIR. The description is as above. The experiment is classed as in vivo, Cyperus iria L. (rice flatsedge). The procedure, abridged:
as §1

Experiment [3] has as its system ECHCG. The experiment in a line: Example V: field trial, in-water application to transplanted rice, Niigata, Japan. The experiment is classed as in vivo, Echinochloa crus-galli. The conditions noted are these: early post-emergence; for Visual Weed Control ECHCG (11 DAA) Obs / Visual Weed Control ECHCG Obs: 11 DAA. On the procedure:
Post and pre-emergence field trials were conducted in Niigata, Japan. Trial sites were located in commercially grown fields of transplanted rice (Oryza sativa, variety: Koshihikari) using standard herbicide small plot research methodology. The trial plot size was 2 meters (m)×2 m with 3 replications. The nursery plants were grown in the greenhouse using practical methods and transplanted into the field at the 2.5-leaf stage on May 7, 2012. The row and in-row spaces were 30 cm and 17 cm, respectively. The crop was grown using normal cultural practices for fertilization, water management and maintenance to ensure good growth of the crop and the weeds.
Treatments consisted of the benzyl ester of 4-amino-3-chloro-5-fluoro-6-(4-chloro-2-fluoro-3-methoxyphenyl)pyridine-2-carboxylic acid (Compound A) formulated as an SC (suspension concentrate) and various herbicidal components alone and in combination. Compound A benzyl ester was applied on an active ingredient basis. The herbicidal components were applied on an active ingredient basis and included very long chain fatty acid (VLCFA) synthesis-inhibiting and fatty acid/lipid biosynthesis herbicides pretilachlor formulated as a commercially available granular formulation and benfuresate formulated as a commercially available flowable formulation.
Compound A benzyl ester SC was once diluted in 100 mL water in the 200 mL bottle/plot to achieve the desired rates and applied by water injection. Water injection applications were made by hand as evenly as possible. Pretilachlor was applied by hand, and benfuresate was applied using a pipette to achieve the desired rates. Each compound in mixture treatments was applied separately and successively. Water depth was 3 cm at application. […] Visual weed control was scored on a scale of 0 to 100 percent where 0 corresponds to no injury and 100 corresponds to complete kill.
All treatment results, both for the single product and mixtures, are an average of 3 replicates. The trial sites had naturally occurring populations of weeds. The weed spectrum included, but was not limited to, common barnyardgrass (Echinochloa crus-galli, ECHCG), monochoria (Monochoria vaginalis, MOOVA), Japanese bulrush (Scirpus juncoides, SCPJU), kuroguwai (Eleocharis kuroguwai, ELOKU), common falsepimpernel (Lindernia pyxidaria, LIDPY), Souchet tardif (Cyperus serotinus, CYPSE), small-flower flatsedge (Cyperus difformis, CYPDI), American waterwort (Elatine triandra, ELTTR), and swamp smartweed (Polygonum hydropiperoides, POLHP).
Colby's equation was used to determine the herbicidal effects expected from the mixtures (Colby, S. R. 1967. Calculation of the synergistic and antagonistic response of herbicide combinations. Weeds 15:20-22.).
Some of the compounds tested, application rates employed, plant species tested, and results for submerged (weeds have not yet emerged from the flood water) weed control are given in Table 54. Some of the compounds tested, application rates employed, plant species tested, and results for early postemergence weed control are given in Tables 55-56.

The test system of experiment [4] is DIGSA. The experiment in a line: Example I: postemergence foliar-applied weed control, greenhouse. The format is in vivo, Digitaria sanguinalis (L.) Scop. (large crabgrass). The conditions noted are these: 20 DAA. The source says:
Seeds or nutlets of the desired test plant species were planted in a soil matrix prepared by mixing a loam or sandy loam soil (e.g., 28.6 percent silt, 18.8 percent clay, and 52.6 percent sand, with a pH of about 5.8 and an organic matter content of about 1.8 percent) and calcareous grit in an 80 to 20 ratio. The soil matrix was contained in plastic pots with a volume of 1 quart and a surface area of 83.6 square centimeters (cm^2). When required to ensure good germination and healthy plants, a fungicide treatment and/or other chemical or physical treatment was applied. The plants were grown for 8-22 days in a greenhouse with an approximate 14 hr photoperiod which was maintained at about 29° C. during the day and 26° C. during the night. Nutrients (Peters Excel® 15-5-15 5-Ca 2-Mg and iron chelate) were applied in the irrigation solution as needed and water was added on a regular basis. Supplemental lighting was provided with overhead metal halide 1000-Watt lamps as necessary. The plants were employed for testing when they reached the first through fourth true leaf stage.
Treatments consisted of the acid or esters of 4-amino-3-chloro-5-fluoro-6-(4-chloro-2-fluoro-3-methoxy-phenyl)pyridine-2-carboxylic acid (Compound A), each formulated as an SC (suspension concentrate), and various herbicidal components alone and in combination. Forms of compound A were applied on an acid equivalent basis.
Other herbicidal components were applied on an active ingredient basis and included very long chain fatty acid (VLCFA) synthesis-inhibiting and fatty acid/lipid synthesis-inhibiting herbicides acetochlor (technical grade material), acetochlor+dichlormid formulated as Topnotch®, pretilachlor (technical grade material), butachlor formulated as Butachlor EC, fentrazamide formulated as Fentrazamide EC, thiobencarb formulated as Bolero® 8EC, cafenstrole formulated as Himeadow® WP or Lapost® Flowable, benfuresate formulated as Full Shot®, dimethenamid-P formulated as Outlook®, indanofan (technical grade material), flufenacet formulated as Define® DF, mefenacet (technical grade material), S-metolachlor formulated as Dual® II Magnum, pethoxamid formulated as Successor® 600, and pyroxasulfone (technical grade material).
Treatment requirements were calculated based upon the rates being tested, the concentration of active ingredient or acid equivalent in the formulation, and a 12 mL application volume at a rate of 187 L/ha.
For treatments comprised of formulated compounds, measured amounts of compounds were placed individually in 25 mL glass vials and diluted in a volume of 1.25% (v/v) Agri-Dex® crop oil concentrated to obtain 12× stock solutions. […] Application solutions were prepared by adding an appropriate amount of each stock solution (e.g., 1 mL) and diluted to the appropriate final concentrations with the addition of 10 mL of an aqueous mixture of 1.25% (v/v) crop oil concentrate so that the final spray solutions contained 1.25+/−0.05% (v/v) crop oil concentrate.
For treatments comprised of technical compounds, weighed amounts can be placed individually in 25 mL glass vials and dissolved in a volume of 97:3 v/v acetone/DMSO to obtain 12× stock solutions. […] Application solutions can be prepared by adding an appropriate amount of each stock solution (e.g., 1 mL) and diluted to the appropriate final concentrations with the addition of 10 mL of an aqueous mixture of 1.5% (v/v) crop oil concentrate so that the final spray solutions contain 1.25% (v/v) crop oil concentrate. When technical materials are used, the concentrated stock solutions can be added to the spray solutions so that the final acetone and DMSO concentrations of the application solutions are […], respectively. […]

Take `CCS(=O)(=O)Oc1ccc2c(c1)C(C)(C)CO2` [Benfuresate, 2,3-dihydro-3,3-dimethyl-5-benzofuranyl ethanesulfonate]: the “Visual Weed Control (%) - 22 DAA ECHCG Obs” value in experiment [1] (75 gai/ha), in experiment [1] (150 gai/ha) and in experiment [1] (300 gai/ha) was 0% each time. Besides, the “Visual Weed Control (%) - 22 DAA CYPIR Obs” value came out at 0% in experiment [2] (150 gai/ha, foliar) and 10% in experiment [2] (300 gai/ha, foliar). Further, in experiment [3] (600 gai/ha), the “Visual Weed Control ECHCG (11 DAA) Obs” value stood at 6.7%. Moreover, the “Visual Weed Control ECHCG (16 DAA) Obs” value in experiment [3] (600 gai/ha) turned out to be 20.0%.

In the case of `CCN(CC)C(=O)n1cnc(S(=O)(=O)c2c(C)cc(C)cc2C)n1` [Cafenstrole, N,N-diethyl-3-[(2,4,6-trimethylphenyl)sulfonyl]-1H-1,2,4-triazole-1-carboxamide], the “Visual Weed Control Obs” value was found to be 10% in experiment [1] (20 DAA, 26.25 gai/ha Himeadow WP); 15% in experiment [1] (20 DAA, 52.5 gai/ha Himeadow WP); 15% in experiment [1] (20 DAA, 105 gai/ha Himeadow WP); 0% in experiment [1] (21 DAA, 210 gai/ha Lapost Flowable); 0% in experiment [2] (21 DAA, 26.25 gai/ha Lapost Flowable); 0% in experiment [2] (21 DAA, 52.5 gai/ha Lapost Flowable). The “Visual Weed Control Obs” value in experiment [2] (21 DAA, 105 gai/ha Lapost Flowable) was determined as 0%.

Turning to `COc1c(Cl)ccc(-c2nc(C(=O)O)c(Cl)c(N)c2F)c1F` [Compound A Acid, 4-amino-3-chloro-6-(4-chloro-2-fluoro-3-methoxyphenyl)-5-fluoropyridine-2-carboxylic acid], the “Visual Weed Control Obs” value was 30% in experiment [4] (4.38 gae/ha); 40% in experiment [4] (17.5 gae/ha); 60% and 50% in experiment [1] (20 DAA, 4.38 gae/ha); 88% in experiment [1] (21 DAA, 17.5 gae/ha); 85% in experiment [1] (21 DAA, 35 gae/ha); 40% in experiment [2] (20 DAA, 4.38 gae/ha). Also, the “Visual Weed Control Obs” value in experiment [2] (21 DAA, 4.38 gae/ha) amounted to 70%. Also, the “Visual Weed Control (%) - 22 DAA ECHCG Obs” value in experiment [1] (5.3 gae/ha) amounted to 65%; in experiment [1] (10.6 gae/ha), 55%. Also, in experiment [2] (5.3 gae/ha, foliar), the “Visual Weed Control (%) - 22 DAA CYPIR Obs” value turned out to be 60%.

For `COc1c(Cl)ccc(-c2nc(C(=O)OCc3ccccc3)c(Cl)c(N)c2F)c1F` [Compound A Benzyl Ester, benzyl ester of 4-amino-3-chloro-5-fluoro-6-(4-chloro-2-fluoro-3-methoxy-phenyl)pyridine-2-carboxylic acid], the “Visual Weed Control Obs” value is 50% and 40% in experiment [4] (4.38 gae/ha); 60% and 40% and 30% in experiment [4] (8.75 gae/ha); 30% in experiment [4] (17.5 gae/ha); 70% in experiment [1] (20 DAA, 4.38 gae/ha); 70% in experiment [1] (20 DAA, 8.75 gae/ha); 78% in experiment [1] (20 DAA, 16 gae/ha). Moreover, the “Visual Weed Control Obs” value in experiment [1] (20 DAA, 32 gae/ha) is listed as 83%; in experiment [2] (20 DAA, 4.38 gae/ha), 80%. Also, the “Visual Weed Control (%) - 22 DAA ECHCG Obs” value is on record as 40% in experiment [1] (5.3 gae/ha); 25% in experiment [1] (8 gae/ha); 60% in experiment [1] (10.6 gae/ha); 50% in experiment [1] (16 gae/ha); 85% in experiment [1] (32 gae/ha). Moreover, the “Visual Weed Control (%) - 20 DAA ECHCG Obs” value is reported as 63% in experiment [1] (8 gae/ha), 78% in experiment [1] (16 gae/ha) and 83% in experiment [1] (32 gae/ha). For the same compound, in experiment [2] (8 gae/ha, foliar), the “Visual Weed Control (%) - 21 DAA CYPIR Obs” value is listed as 30%. For the same compound, the “Visual Weed Control (%) - 22 DAA CYPIR Obs” value in experiment [2] (16 gae/ha, foliar) came to 60%. Further, the “Visual Weed Control ECHCG (11 DAA) Obs” value in experiment [3] (100 gai/ha) turned out to be 3.3%. The “Visual Weed Control ECHCG Obs” value in experiment [3] (100 gai/ha) was found to be 6.7%. For the same compound, the “Visual Weed Control ECHCG (16 DAA) Obs” value in experiment [3] (100 gai/ha) came to 20.0%.

With `CCCOCCN(C(=O)CCl)c1c(CC)cccc1CC` [Pretilachlor, 2-chloro-N-(2,6-diethylphenyl)-N-(2-propoxyethyl)acetamide], the “Visual Weed Control Obs” value is 0% in experiment [4] (37.5 gai/ha); 0% in experiment [4] (75 gai/ha); 0% in experiment [4] (150 gai/ha); 10% in experiment [1] (20 DAA, 37.5 gai/ha); 10% in experiment [1] (20 DAA, 75 gai/ha); 0% in experiment [1] (20 DAA, 150 gai/ha). For the same compound, the “Visual Weed Control Obs” value stood at 0% in experiment [2] (20 DAA, 37.5 gai/ha); 0% in experiment [2] (20 DAA, 75 gai/ha); 0% in experiment [2] (20 DAA, 150 gai/ha). Besides, the “Visual Weed Control ECHCG Obs” value in experiment [3] (400 gai/ha) was 46.7%.

The values above are taken from patent publication US20130310256A1, “HERBICIDAL COMPOSITIONS COMPRISING 4-AMINO-3-CHLORO-5-FLUORO-6-(4-CHLORO-2-FLUORO-3-METHOXYPHENYL) PYRIDINE-2-CARBOXYLIC ACID OR A DERIVATIVE THEREOF AND VLCFA AND LIPID SYNTHESIS INHIBITING HERBICIDES” (DOW AGROSCIENCES LLC, priority 2008, published 2013).
